# Target: T1, Aspergillus niger beta-glucosidase, wild type, yEdQ745-BG (CAB75696.1, SEQ ID NO:2) (Aspergillus niger, UniProt Q9P8F4)
# T1 construct: strain yEdQ745
# T1 sequence (Q9P8F4 20-860): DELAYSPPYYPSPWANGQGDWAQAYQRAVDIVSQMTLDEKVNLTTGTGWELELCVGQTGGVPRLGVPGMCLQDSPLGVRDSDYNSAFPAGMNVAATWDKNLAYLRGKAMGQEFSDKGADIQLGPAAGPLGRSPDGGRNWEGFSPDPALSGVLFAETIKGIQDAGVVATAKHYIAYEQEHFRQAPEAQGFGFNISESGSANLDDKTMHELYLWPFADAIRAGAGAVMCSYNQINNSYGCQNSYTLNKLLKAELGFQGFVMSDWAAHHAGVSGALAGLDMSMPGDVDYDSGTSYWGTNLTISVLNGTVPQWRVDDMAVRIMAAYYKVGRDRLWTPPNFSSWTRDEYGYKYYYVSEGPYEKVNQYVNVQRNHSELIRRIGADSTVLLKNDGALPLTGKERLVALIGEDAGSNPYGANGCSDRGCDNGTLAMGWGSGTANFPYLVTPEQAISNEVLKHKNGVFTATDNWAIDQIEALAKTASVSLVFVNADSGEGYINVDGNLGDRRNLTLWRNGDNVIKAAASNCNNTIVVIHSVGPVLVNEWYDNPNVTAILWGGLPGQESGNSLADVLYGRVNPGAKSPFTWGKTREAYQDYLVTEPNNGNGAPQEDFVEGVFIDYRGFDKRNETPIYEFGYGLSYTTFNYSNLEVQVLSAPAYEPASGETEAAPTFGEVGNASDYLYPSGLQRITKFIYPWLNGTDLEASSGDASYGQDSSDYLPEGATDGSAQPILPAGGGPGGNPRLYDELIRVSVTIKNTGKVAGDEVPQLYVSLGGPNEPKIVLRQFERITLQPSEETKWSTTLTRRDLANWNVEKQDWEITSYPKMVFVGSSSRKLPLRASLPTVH
# Assay: BG kinetics, cellobiose hydrolysis assay (HPLC) with glucose as competitive inhibitor, yEdQ745-BG
# Assay type: biochemical
# Description: Accordingly, in some embodiments, the unmodified form of the beta-glucosidase is a wild-type or a naturally occurring beta-glucosidase, such as, for example, a fungal beta-glucosidase. The full nucleic acid and amino acid sequence for numerous fungal beta-glucosidases are available. The amino acid sequence of A. niger beta-glucosidase is provided as SEQ ID NO:2. Thus, in some embodiments, the unmodified beta-glucosidase is from an Aspergillus species. In some embodiments, the unmodified beta-glucosidase is from a Trichoderma species.
# The beta-glucosidase (BG) gene from Aspergillus niger (Accession #CAB75696.1) was integrated into the TR3 yeast background at the T4U3 genomic site.
# The BG-expressing strains were subsequently used in corn mash and corn stover simultaneous saccharification and fermentation (SSF) studies using flask scale and pilot plant fermentations. A 12-gallon corn stover fermentation was performed at 40° C. in which the beta-glucosidase secreting yeast strain was co-inoculated with three other engineered yeast strains individually expressing endoglucanase II, CBH1, and CBHII. Surviving TR3 Saccharomyces cerevisiae yeast strains individually expressing BG, EGII, CBH1 or CBH2 were recovered by plating onto solid medium. A clonal population of BG-secreting yeast was isolated and the BG gene integration confirmed. […]
structure (smiles),measurement,setting,value
OC[C@H]1OC(O)[C@H](O)[C@@H](O)[C@@H]1O (some centres unmarked) [glucose],Ki,,1560 ± 290 µM
same,Km/Ki,"inhibitor influence, Km for cellobiose / Ki for glucose, pH 4.8, 50° C.",0.93
